Measured values published in ChEMBL document CHEMBL1152604, “Design, synthesis and biological evaluation of tripeptide boronic acid proteasome inhibitors” (Bioorg Med Chem, 2009).

What was measured:
[1] = Inhibition of trypsin-like activity of mouse liver 20S proteasome
[2] = Inhibition of peptidylglutamyl peptide-hydrolyzing activity of mouse liver 20S proteasome
[3] = Inhibition of chymotrypsin-like activity of mouse liver 20S proteasome
HL-60 = test: Cytotoxicity against human HL60 cells after 72 hrs by MTT assay; format: functional, cell-based; details: HL-60, 72 h
U-266 = test: Cytotoxicity against human U266 cells after 72 hrs by MTT assay; format: functional, cell-based; details: U-266, 72 h
BGC-823 = test: Cytotoxicity against human BGC823 cells after 72 hrs by MTT assay; format: functional, cell-based; details: BGC-823, 72 h
BXPC-3 = test: Cytotoxicity against human BxPC3 cells after 72 hrs by MTT assay; format: functional, cell-based; details: BXPC-3, 72 h

| SMILES | IC50 [1] | IC50 [2] | IC50 [3] | IC50 (HL-60) | IC50 (U-266) | IC50 (BGC-823) | IC50 (BXPC-3) |
| --- | --- | --- | --- | --- | --- | --- | --- |
| CC(C)C[C@@H](NC(=O)[C@H](Cc1ccc2ccccc2c1)NC(=O)[C@H](Cc1ccc2ccccc2c1)NC(=O)c1cnccn1)B1O[C@@H]2[C@@H](C[C@H]3C[C@@H]2C3(C)C)O1 | > 20 nM | > 20 nM | 0.495 nM |  |  |  |  |
| CC(C)C[C@@H](NC(=O)[C@H](Cc1ccccc1)NC(=O)[C@H](Cc1ccc2ccccc2c1)NC(=O)c1cnccn1)B(O)O | > 20 nM | 4.43 nM | 0.417 nM | 10 nM | 53 nM | 2800 nM | 31.8 nM |
| CC(C)C[C@@H](NC(=O)[C@H](Cc1ccccc1)NC(=O)[C@H](Cc1c[nH]c2ccccc12)NC(=O)c1cnccn1)B1O[C@@H]2[C@@H](C[C@H]3C[C@@H]2C3(C)C)O1 | > 20 nM | > 20 nM | > 20 nM |  |  |  |  |
| CC(C)C[C@H](NC(=O)c1cnccn1)C(=O)N[C@@H](Cc1ccc2ccccc2c1)C(=O)N[C@H](CC(C)C)B1O[C@@H]2[C@@H](C[C@H]3C[C@@H]2C3(C)C)O1 | > 20 nM | 3.91 nM | 0.37 nM |  |  |  |  |
| CC(C)C[C@H](NC(=O)c1cnccn1)C(=O)N[C@@H](CC(C)C)C(=O)N[C@H](CC(C)C)B1O[C@@H]2[C@@H](C[C@H]3C[C@@H]2C3(C)C)O1 | > 20 nM | > 20 nM | > 20 nM |  |  |  |  |
| CC(C)C[C@@H](NC(=O)[C@H](Cc1ccc2ccccc2c1)NC(=O)[C@H](Cc1ccccc1)NC(=O)c1cnccn1)B(O)O | > 20 nM | 3.8 nM | 0.111 nM | 7.4 nM | 15.8 nM | 1040 nM | 28.7 nM |
| CC(C)C[C@@H](NC(=O)[C@H](Cc1c[nH]c2ccccc12)NC(=O)[C@H](Cc1ccccc1)NC(=O)c1cnccn1)B(O)O | > 20 nM | > 20 nM | > 20 nM |  |  |  |  |
| CC(C)C[C@@H](NC(=O)[C@H](Cc1ccccc1)NC(=O)[C@H](Cc1ccc(O)cc1)NC(=O)c1cnccn1)B(O)O | > 20 nM | 2.5 nM | 0.263 nM | 445 nM | 66.2 nM | 2460 nM | 257 nM |
| CC(C)C[C@@H](NC(=O)[C@H](Cc1ccc2ccccc2c1)NC(=O)[C@H](Cc1ccccc1)NC(=O)c1cnccn1)B1O[C@@H]2[C@@H](C[C@H]3C[C@@H]2C3(C)C)O1 | > 20 nM | > 20 nM | 0.443 nM |  |  |  |  |
| CC(C)C[C@H](NC(=O)c1cnccn1)C(=O)N[C@@H](Cc1ccccc1)C(=O)N[C@H](CC(C)C)B1O[C@@H]2[C@@H](C[C@H]3C[C@@H]2C3(C)C)O1 | > 20 nM | 3.4 nM | 0.431 nM |  |  |  |  |
| CC(C)C[C@H](NC(=O)[C@H](Cc1ccccc1)NC(=O)c1cnccn1)C(=O)N[C@H](CC(C)C)B(O)O | > 20 nM | 5.66 nM | 0.173 nM |  |  |  |  |
| CC(C)C[C@H](NC(=O)[C@H](Cc1ccccc1)NC(=O)c1cnccn1)C(=O)N[C@H](CC(C)C)B1O[C@@H]2[C@@H](C[C@H]3C[C@@H]2C3(C)C)O1 | > 20 nM | 2.73 nM | 0.287 nM |  |  |  |  |
| CC(C)C[C@@H](NC(=O)[C@H](Cc1ccccc1)NC(=O)[C@H](Cc1ccccc1)NC(=O)c1cnccn1)B1O[C@@H]2[C@@H](C[C@H]3C[C@@H]2C3(C)C)O1 | > 20 nM | 8.33 nM | 0.402 nM |  |  |  |  |
| CC(C)C[C@H](NC(=O)c1cnccn1)C(=O)N[C@@H](CC(C)C)C(=O)N[C@H](CC(C)C)B(O)O | > 20 nM | > 20 nM | > 20 nM |  |  |  |  |
| CC(C)C[C@@H](NC(=O)[C@H](Cc1ccc2ccccc2c1)NC(=O)[C@H](Cc1ccc2ccccc2c1)NC(=O)c1cnccn1)B(O)O | > 20 nM | > 20 nM | 0.335 nM | 19.6 nM | 195 nM | 2450 nM | 33.3 nM |
| CC(C)C[C@@H](NC(=O)[C@H](Cc1ccc(O)cc1)NC(=O)[C@H](Cc1ccccc1)NC(=O)c1cnccn1)B(O)O | > 20 nM | 4.01 nM | 0.395 nM | 552 nM | 250 nM | 5140 nM | 445 nM |
| CC(C)C[C@H](NC(=O)[C@H](Cc1ccc2ccccc2c1)NC(=O)c1cnccn1)C(=O)N[C@H](CC(C)C)B(O)O | > 20 nM | 12.8 nM | 0.22 nM | 15 nM | 120 nM | 1720 nM | 43.5 nM |

Now from value to compound, other results behind:

| IC50 [1] | IC50 [2] | IC50 [3] | SMILES | IC50 (HL-60) | IC50 (U-266) | IC50 (BGC-823) | IC50 (BXPC-3) |
| --- | --- | --- | --- | --- | --- | --- | --- |
| > 20 nM | 5.39 nM | 0.335 nM | CC(C)C[C@@H](NC(=O)C(Cc1ccc(O)cc1)NC(=O)[C@H](Cc1ccccc1)NC(=O)c1cnccn1)B1O[C@@H]2[C@@H](C[C@H]3C[C@@H]2C3(C)C)O1 (some centres undefined) |  |  |  |  |
| > 20 nM | 5.14 nM | 0.19 nM | CC(C)C[C@H](NC(=O)c1cnccn1)C(=O)N[C@@H](Cc1ccccc1)C(=O)N[C@H](CC(C)C)B(O)O |  |  |  |  |
| > 20 nM | 3.63 nM | 0.079 nM | CC(C)C[C@H](NC(=O)c1cnccn1)C(=O)N[C@@H](Cc1ccc2ccccc2c1)C(=O)N[C@H](CC(C)C)B(O)O | 4.6 nM | 9.9 nM | 600 nM | 21.2 nM |
| > 20 nM | 10.9 nM | 0.546 nM | CC(C)C[C@@H](NC(=O)[C@H](Cc1ccccc1)NC(=O)[C@H](Cc1ccccc1)NC(=O)c1cnccn1)B(O)O |  |  |  |  |
| > 20 nM | 14.1 nM | 0.345 nM | CC(C)C[C@H](NC(=O)[C@H](Cc1ccc2ccccc2c1)NC(=O)c1cnccn1)C(=O)N[C@H](CC(C)C)B1O[C@@H]2[C@@H](C[C@H]3C[C@@H]2C3(C)C)O1 |  |  |  |  |
| > 20 nM | 4.76 nM | 0.295 nM | CC(C)C[C@@H](NC(=O)[C@H](Cc1ccccc1)NC(=O)[C@H](Cc1ccc(O)cc1)NC(=O)c1cnccn1)B1O[C@@H]2[C@@H](C[C@H]3C[C@@H]2C3(C)C)O1 |  |  |  |  |
| > 20 nM | > 20 nM | > 20 nM | CC(C)C[C@@H](NC(=O)[C@H](Cc1ccccc1)NC(=O)[C@H](Cc1c[nH]c2ccccc12)NC(=O)c1cnccn1)B(O)O |  |  |  |  |
| > 20 nM | > 20 nM | 0.22 nM | CC(C)C[C@@H](NC(=O)[C@H](Cc1ccccc1)NC(=O)[C@H](Cc1ccc2ccccc2c1)NC(=O)c1cnccn1)B1O[C@@H]2[C@@H](C[C@H]3C[C@@H]2C3(C)C)O1 |  |  |  |  |
| > 20 nM | > 20 nM | > 20 nM | CC(C)C[C@@H](NC(=O)[C@H](Cc1c[nH]c2ccccc12)NC(=O)[C@H](Cc1ccccc1)NC(=O)c1cnccn1)B1O[C@@H]2[C@@H](C[C@H]3C[C@@H]2C3(C)C)O1 |  |  |  |  |
| > 20 nM | > 20 nM | 0.161 nM | CC(C)C[C@H](NC(=O)[C@H](Cc1ccccc1)NC(=O)c1cnccn1)B(O)O [BORTEZOMIB] |  |  |  |  |
